Measurements as given in patent publication US20210038559A1, “CANNABINOIDS AND DERIVATIVES FOR PROMOTING IMMUNOGENICITY OF TUMOR AND INFECTED CELLS” (priority 2018, published 2021).
Structures can show the parent of a compound that is named as a salt.

These compounds were tested on MHC-I expression by COLO 205 cells (assay: cells). Conditions: not given.
Format: cell-based, human
Description: A panel of synthetic cannabinoids (Cayman Chemical, #9002891) was tested for MHC class I-inducing capability in COLO 205 cells as described above. COLO 205 cells were treated with the compounds at a concentration of 35 μM and evaluated for cell surface MHC class I expression after 48 hours. Cells were harvested, stained with MHC-I mAb W6/32 (Thermo Fisher). MHC-I expression was determined by flow cytometry.

Row | Compound | Induction Fold [Fold]
1 | CCCCCn1cc(C(=O)NC23CC4CC(CC(C4)C2)C3)c2ccccc21 [Example 108, 1-pentyl-N-tricyclo[3.3.1.1]dec-1-yl-1H-indole-3-carboxamide] | 2.38
2 | 1-naphthalenyl[1-(4-penten-1-yl)-1H-indol-3-yl]-methanone [Example 73] | 2.68

Same assay, conditions: Homo sapiens, COLO 205, 48 h, MHC-I expression, COLO 205 cells, compounds at 35 μM, 48 hours, flow cytometry (W6/32); read-out: Induction Fold

Row | Compound | fold induction at 35 µM
3 | CCCCCCC(C)(C)c1ccc([C@H]2CCC[C@@H](O)C2)c(O)c1 [Example 371, 2[(1S,3R)-3-hydroxycyclohexyl]-5-(2-methyloctan-2-yl)phenol] | 0.78
4 | COc1ccc(C(=O)c2c(C)n(CCN3CCOCC3)c3cc(I)ccc23)cc1 [Example 320, [6-iodo-2-methyl-1-[2-(4-morpholinyl)ethyl]-1H-indol-3-yl](4-methoxyphenyl)-methanone] | 1.3
5 | CCCCCn1cc(C(=O)c2ccc3ccccc3c2)c2ccccc21 [Example 259, 2-naphthalenyl(1-pentyl-1H-indol-3-yl)-methanone] | 1.58
6 | CCCCCn1cc(C(=O)c2cccc3ccc(OC)cc23)c2ccccc21 [Example 163, (7-methoxy-1-naphthalenyl)(1-pentyl-1H-indol-3-yl)-methanone] | 2.04
7 | COc1ccc(N2CCNCC2)cc1 [Example 347, 1-(4-Methoxyphenyl) piperazine (hydrochloride)] | 1.12
8 | CCCC(NC(=O)c1nn(Cc2ccc(F)cc2)c2ccccc12)C(N)=O (single isomer, unassigned) [Example 169, N-(1-amino-1-oxopentan-2-yl)-1-(4-fluorobenzyl)-1H-indazole-3-carboxamide] | 2.01
9 | O=C(Oc1ccnc2ccccc12)c1cn(CCCCCF)c2ccccc12 [Example 92, quinolin-4-yl 1-(5-fluoropentyl)-1H-indole-3-carboxylate] | 2.47
10 | CC(C)[C@H](NC(=O)c1nn(CCCCCCl)c2ccccc12)C(N)=O [Example 170, N-[(1S)-1-(aminocarbonyl)-2-methylpropyl]-1-(5-chloropentyl)-1H-indazole-3-carboxamide] | 2.01
11 | CC(C)[C@H](NC(=O)c1cc(-c2ccc(F)cc2)n(CC2CCCCC2)n1)C(N)=O [Example 344, (S)-N-(1-amino-3-methyl-1-oxobutan-2-yl)-1-(cyclohexylmethyl)-5-(4-fluorophenyl)-1H-pyrazole-3-carboxamide] | 1.14
12 | CC(C)Cn1cc(C(=O)c2cccc3ccccc23)c2ccccc21 [Example 41, (1-isobutyl-1H-indol-3-yl)(naphthalen-1-yl)methanone] | 3.11
13 | CCCCCn1cc(C(=O)Nc2ccccc2)c2ccccc21 [Example 307, 1-pentyl-N-phenyl-1H-indole-3-carboxamide] | 1.38
14 | CC(C)(C)C(NC(=O)c1nn(CCCCCF)c2ccccc12)C(N)=O (centres unmarked) [Example 289, N-[1-(aminocarbonyl)-2,2-dimethylpropyl]-1-(5-fluoropentyl)-1H-indazole-3-carboxamide] | 1.44
15 | CCCCCn1cc(C(=O)c2cccc(OC)c2)c2ccccc21 [Example 56, (3-methoxyphenyl)(1-pentyl-1H-indol-3-yl)methanone] | 2.9
16 | CC(C)[C@H](NC(=O)c1cn(CC2CCCCC2)c2ccccc12)C(N)=O [Example 96, (S)-N-(1-amino-3-methyl-1-oxobutan-2-yl)-1-(cyclohexylmethyl)-1H-indole-3-carboxamide] | 2.44
17 | CC(C)[C@H](NC(=O)c1nn(CCCCCF)c2ccccc12)C(N)=O [Example 292, N-[(1S)-1-(aminocarbonyl)-2-methylpropyl]-1-(5-fluoropentyl)-1H-indazole-3-carboxamide] | 1.43
18 | O=C(c1nn(CCCCCF)c2ccccc12)N1CCCC1 [Example 230, (1-(5-fluoropentyl)-1H-indazol-3-yl)(pyrrolidin-1-yl)methanone] | 1.72
19 | CCCCCn1cc(C(=O)c2cccc3cccc(Br)c23)c2ccccc21 [Example 87, (8-bromonaphthalen-1-yl)(1-pentyl-1H-indol-3-yl)methanone] | 2.51
20 | O=C(c1ccccc1I)c1cn(CCCCCF)c2ccccc12 [Example 54, [1-(5-fluoropentyl)-1H-indol-3-yl](2-iodophenyl)-methanone] | 2.93
21 | CCCCCCC(C)(C)c1cc(O)cc(OCCCCCCCC(=O)NC2CC2)c1 [Example 159, N-cyclopropyl-8-[3-(1,1-dimethylheptyl)-5-hydroxyphenoxy]-octanamide] | 2.06

Row | Compound | fold induction at 35 µM
22 | O=C(Oc1ccnc2ccccc12)c1cn(CC2CCCCC2)c2ccccc12 [Example 9, quinolin-4-yl 1-(cyclohexylmethyl)-1H-indole-3-carboxylate] | 5.41
23 | CC(F)CCCn1cc(C(=O)c2cccc3ccccc23)c2ccccc21 (centres unmarked) [Example 316, (1-(4-fluoropentyl)-1H-indol-3-yl)(naphthalen-1-yl)methanone] | 1.32
24 | CCCCn1cc(C(=O)c2ccc(OC)c3ccccc23)c2ccccc21 [Example 370, (1-butyl-1H-indol-3-yl)(4-methoxy-1-naphthalenyl)-methanone] | 0.82
25 | CCc1ccc(C(=O)c2cn(CCCCCF)c3ccccc23)c2ccccc12 [Example 216, (4-ethyl-1-naphthalenyl)[1-(5-fluoropentyl)-1H-indol-3-yl]-methanone] | 1.79
26 | CC(C)C(C)n1cc(C(=O)c2ccc3ccccc3c2)c2ccccc21 (centres unmarked) [Example 342, (1-(3-methylbutan-2-yl)-1H-indol-3-yl)(naphthalen-2-yl)methanone] | 1.17
27 | COc1ccccc1CC(=O)c1cn(CCC2CCCCC2)c2ccccc12 [Example 74, 1-(1-(2-cyclohexylethyl)-1H-indol-3-yl)-2-(2-methoxyphenyl)ethanone] | 2.65
28 | COc1ccc2c(c1)c(CC(=O)N1CCOCC1)c(C)n2C(=O)c1ccc(Cl)cc1 [Example 121, 2-[1-(4-chlorobenzoyl)-5-methoxy-2-methyl-1H-indol-3-yl]-1-(4-morpholinyl)-ethanone] | 2.32
29 | CC(C)[C@H](NC(=O)c1c2ccccc2nn1CC1CCCCC1)C(N)=O [Example 343, (S)-N-(1-amino-3-methyl-1-oxobutan-2-yl)-2-(cyclohexylmethyl)-2H-indazole-3-carboxamide] | 1.14
30 | CCCCCC1=C/C(=C\c2cccc3ccccc23)c2ccccc21 [Example 303, 1-[(E)-(3-pentyl-1H-inden-1-ylidene)methyl]-naphthalene] | 1.39
31 | CCCCCn1cc(C(=O)c2c(C)ccc3ccccc23)c2ccccc21 [Example 25, (2-methylnaphthalen-1-yl)(1-pentyl-1H-indol-3-yl)methanone] | 3.6
32 | CCCCCn1cc(C(=O)c2cccc3ccc(CC)cc23)c2ccccc21 [Example 231, (7-ethyl-1-naphthalenyl)(1-pentyl-1H-indol-3-yl)-methanone] | 1.72
33 | CCCCCn1cc(C(=O)c2cccc3c(OC)cccc23)c2ccccc21 [Example 346, (5-methoxynaphthalen-1-yl)(1-pentyl-1H-indol-3-yl)methanone] | 1.13
34 | CCCCCn1cc(C(=O)Cc2ccccc2Cl)c2ccccc21 [Example 190, 2-(2-chlorophenyl)-1-(1-pentyl-1H-indol-3-yl)-ethanone] | 1.89
35 | CCCC(F)Cn1cc(C(=O)c2cccc3ccccc23)c2ccccc21 (centres unmarked) [Example 104, (1-(2-fluoropentyl)-1H-indol-3-yl)(naphthalen-1-yl)methanone] | 2.41
36 | CC(C)[C@H](NC(=O)c1nn(Cc2ccccc2F)c2ccccc12)C(N)=O [Example 143, N-[(1S)-1-(aminocarbonyl)-2-methylpropyl]-1-[(2-fluorophenyl)methyl]-1H-indazole-3-carboxamide] | 2.19
37 | O=C(NCc1ccccc1)c1cn(CCCCCF)c2ccccc12 [Example 306, 1-(5-fluoropentyl)-N-(phenylmethyl)-1H-indole-3-carboxamide] | 1.38
38 | CCCCCn1cc(C(=O)Oc2ccc3ccncc3c2)c2ccccc21 [Example 274, isoquinolin-7-yl 1-pentyl-1H-indole-3-carboxylate] | 1.52
39 | CC(C)(NC(=O)c1cn(CCCCCF)c2ccccc12)c1ccccc1 [Example 356, 1-(5-fluoropentyl)-N-(1-methyl-1-phenylethyl)-1H-indole-3-carboxamide] | 1.03

Same assay, conditions: Homo sapiens, COLO 205, 48 h, read-out: Induction Fold

Row | Compound | fold induction at 35 µM
40 | CN1CCCCC1Cn1cc(C(=O)C2C(C)(C)C2(C)C)c2ccccc21 (centres unmarked) [Example 368, [1-[(1-methyl-2-piperidinyl)methyl]-1H-indol-3-yl](2,2,3,3-tetramethylcyclopropyl)-methanone] | 0.85

Same assay, conditions: MHC-I expression, COLO 205 cells, compounds at 35 μM, 48 hours, flow cytometry (W6/32)

Row | Compound | Induction Fold [Fold]
41 | COC(=O)[C@@H](NC(=O)c1cn(CC2CCCCC2)c2ccccc12)C(C)C [Example 229, methyl (1-(cyclohexylmethyl)-1H-indole-3-carbonyl)-1-valinate] | 1.72
42 | COC(=O)[C@@H](NC(=O)c1nn(Cc2ccc(F)cc2)c2ccccc12)C(C)(C)C [Example 46, N-[[1-[(4-fluorophenyl)methyl]-1H-indazol-3-yl]carbonyl]-3-methyl-1-valine, methyl ester] | 3.02
43 | COC(=O)[C@@H](NC(=O)c1cn(Cc2ccc(F)cc2)c2ccccc12)C(C)C [Example 270, N-[[1-[(4-fluorophenyl)methyl]-1H-indol-3-yl]carbonyl]-1-valine, methyl ester] | 1.54
44 | COC(=O)[C@@H](NC(=O)c1cn(CC2CCCCC2)c2ccccc12)C(C)(C)C [Example 31, N-[[1-(cyclohexylmethyl)-1H-indol-3-yl]carbonyl]-3-methyl-1-valine, methyl ester] | 3.35
